Data published in the supplement of paper PMC4862054.

System: MFM-223
Test: normalised viability (% of control), CellTiter-Blue; higher = more viable cells (about 100 = DMSO control)
Details: 1000 nM; incubation time: 72 h
Outline: (§1)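 Seeded at 20 µl suspension per well onto compound-loaded 384-well plates, breast cancer cell lines were incubated 72 h. CellTiter-Blue fluorescence at 560/590 nm was then read, with each plate normalised to vehicle (100) and a positive kill control (0). Normalised viability is reported at a single listed concentration of the series.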

Row | SMILES | normalised viability
1 | C=CCN(/C=C1/C(=O)O[C@H](COC)[C@@]2(C)C1=C(O)C(=O)C1=C2[C@H](OC(C)=O)C[C@]2(C)C(=O)CC[C@@H]12)CC=C [PX-866] | 96.9%
2 | CC[C@H](CO)Nc1nc(NCc2ccccc2)c2ncn(C(C)C)c2n1 [Roscovitine] | 91.5%

Same assay, conditions: 10000 nM; incubation time: 72 h

Row | SMILES | normalised viability
3 | COc1ccc(S(=O)(=O)Nc2cccnc2Nc2ccc(O)cc2)cc1 [ABT-751] | 25.4%
4 | COc1c2occc2cc2ccc(=O)oc12 [Methoxsalen] | 50.5%
5 | C=CCN(/C=C1/C(=O)O[C@H](COC)[C@@]2(C)C1=C(O)C(=O)C1=C2[C@H](OC(C)=O)C[C@]2(C)C(=O)CC[C@@H]12)CC=C [PX-866] | 95.9%
6 | CC[C@H](CO)Nc1nc(NCc2ccccc2)c2ncn(C(C)C)c2n1 [Roscovitine] | 85.1%

System: SK-BR-3
Test: as above
Details: 1 nM; incubation time: 72 h
Outline: as §1

Row | SMILES | normalised viability
7 | Cc1cc(Nc2nc(N[C@@H](C)c3ncc(F)cn3)ncc2Cl)[nH]n1 [AZD1480] | 108%

Same assay, conditions: 10 nM; incubation time: 72 h

Row | SMILES | normalised viability
8 | COc1ccc(S(=O)(=O)Nc2cccnc2Nc2ccc(O)cc2)cc1 [ABT-751] | 93.3%
9 | COc1c2occc2cc2ccc(=O)oc12 [Methoxsalen] | 104%
10 | C=CCN(/C=C1/C(=O)O[C@H](COC)[C@@]2(C)C1=C(O)C(=O)C1=C2[C@H](OC(C)=O)C[C@]2(C)C(=O)CC[C@@H]12)CC=C [PX-866] | 109%
11 | CC[C@H](CO)Nc1nc(NCc2ccccc2)c2ncn(C(C)C)c2n1 [Roscovitine] | 90.3%

Same assay, conditions: 100 nM; incubation time: 72 h

Row | SMILES | normalised viability
12 | Cc1cc(Nc2nc(N[C@@H](C)c3ncc(F)cn3)ncc2Cl)[nH]n1 [AZD1480] | 126%

Same assay, conditions: 1000 nM; incubation time: 72 h

Row | SMILES | normalised viability
13 | COc1ccc(S(=O)(=O)Nc2cccnc2Nc2ccc(O)cc2)cc1 [ABT-751] | 16.9%
14 | Cc1cc(Nc2nc(N[C@@H](C)c3ncc(F)cn3)ncc2Cl)[nH]n1 [AZD1480] | 102%
15 | COc1c2occc2cc2ccc(=O)oc12 [Methoxsalen] | 127%
16 | C=CCN(/C=C1/C(=O)O[C@H](COC)[C@@]2(C)C1=C(O)C(=O)C1=C2[C@H](OC(C)=O)C[C@]2(C)C(=O)CC[C@@H]12)CC=C [PX-866] | 61.7%
17 | CC[C@H](CO)Nc1nc(NCc2ccccc2)c2ncn(C(C)C)c2n1 [Roscovitine] | 104%

Same assay, conditions: 10000 nM; incubation time: 72 h

Row | SMILES | normalised viability
18 | COc1ccc(S(=O)(=O)Nc2cccnc2Nc2ccc(O)cc2)cc1 [ABT-751] | 15.6%
19 | COc1c2occc2cc2ccc(=O)oc12 [Methoxsalen] | 104%
20 | C=CCN(/C=C1/C(=O)O[C@H](COC)[C@@]2(C)C1=C(O)C(=O)C1=C2[C@H](OC(C)=O)C[C@]2(C)C(=O)CC[C@@H]12)CC=C [PX-866] | 28.5%
21 | CC[C@H](CO)Nc1nc(NCc2ccccc2)c2ncn(C(C)C)c2n1 [Roscovitine] | 87%

System: BT-549
Test: drug sensitivity score (DSS), CellTiter-Glo (DSS (AUC-based score)); higher = stronger drug effect (viability inhibition or cytotoxicity); extreme values may be limits of the assay
Details: incubation time: 72 h
Outline: (§2)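 Plates with 384 wells held compound at 5 concentrations in 10-fold steps over a 10,000-fold range specific to each compound. Breast cancer cell lines were added in 20 µl suspension and incubated 72 h, then read for CellTox Green and CellTiter-Glo signals, with each plate normalised to 0.1 % DMSO and a positive kill control. The drug sensitivity score is based on the area under the fitted dose-response curve.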

Row | SMILES | drug sensitivity score
22 | CCn1c(C(=O)N(C2CC2)C2CC2)cc2c3c(ncn3C)c(Nc3cc(C)n(C)n3)nc21 | 0
23 | COc1ccc(S(=O)(=O)Nc2cccnc2Nc2ccc(O)cc2)cc1 [ABT-751] | 9.41
24 | CN[C@@H](C)C(=O)N[C@H]1CN(C(=O)CC(C)C)CC[C@H]2CC[C@@H](C(=O)NC(c3ccccc3)c3ccccc3)N2C1=O [AT-406] | 17.3
25 | Cc1cc(Nc2nc(N[C@@H](C)c3ncc(F)cn3)ncc2Cl)[nH]n1 [AZD1480] | 0
26 | CC1(COc2ccc3c(c2)ncn3-c2ccc3cccc(N4CCC(N)CC4)c3n2)COC1 [Crenolanib] | 7.22
27 | CC(C)(C)c1nc(-c2cccc(NS(=O)(=O)c3c(F)cccc3F)c2F)c(-c2ccnc(N)n2)s1 [Dabrafenib] | 0
28 | Cc1nc(C(=O)NCC(=O)O)c(O)c2ccc(Oc3ccccc3)cc12 [FG-4592] | 0
29 | O=C(O)CNC(=O)c1c(O)c2ccccc2n(Cc2ccccc2)c1=O [IOX-2] | 0.135
30 | CN(C)C(=N)NC(=N)N [Metformin] | 0
31 | CC[C@H](CO)Nc1nc(NCc2ccccc2)c2ncn(C(C)C)c2n1 [Seliciclib] | 1.15
32 | C=CCN(/C=C1/C(=O)O[C@H](COC)[C@@]2(C)C1=C(O)C(=O)C1=C2[C@H](OC(C)=O)C[C@]2(C)C(=O)CC[C@@H]12)CC=C [Sonolisib] | 0.766
33 | O=[N+]([O-])c1ccc2c(c1)S(=O)(=O)C=C2 [Stattic] | 20.4
34 | CC(C)n1cnc2c(NCCc3ccc(O)cc3)nc(-c3csc4ccccc34)nc21 [StemRegenin 1] | 3.44

System: CAL-120
Test: as above
Details: incubation time: 72 h
Outline: as §2

Row | SMILES | drug sensitivity score
35 | CCn1c(C(=O)N(C2CC2)C2CC2)cc2c3c(ncn3C)c(Nc3cc(C)n(C)n3)nc21 | 0
36 | COc1ccc(S(=O)(=O)Nc2cccnc2Nc2ccc(O)cc2)cc1 [ABT-751] | 7.83
37 | CN[C@@H](C)C(=O)N[C@H]1CN(C(=O)CC(C)C)CC[C@H]2CC[C@@H](C(=O)NC(c3ccccc3)c3ccccc3)N2C1=O [AT-406] | 0
38 | Cc1cc(Nc2nc(N[C@@H](C)c3ncc(F)cn3)ncc2Cl)[nH]n1 [AZD1480] | 0
39 | CC1(COc2ccc3c(c2)ncn3-c2ccc3cccc(N4CCC(N)CC4)c3n2)COC1 [Crenolanib] | 0
40 | CC(C)(C)c1nc(-c2cccc(NS(=O)(=O)c3c(F)cccc3F)c2F)c(-c2ccnc(N)n2)s1 [Dabrafenib] | 8.71
41 | Cc1nc(C(=O)NCC(=O)O)c(O)c2ccc(Oc3ccccc3)cc12 [FG-4592] | 0
42 | O=C(O)CNC(=O)c1c(O)c2ccccc2n(Cc2ccccc2)c1=O [IOX-2] | 0
43 | CN(C)C(=N)NC(=N)N [Metformin] | 0
